The target in series [1] is T1, Peptidyl-prolyl cis-trans isomerase NIMA-interacting 1 (Homo sapiens, UniProt Q13526).
The next series deals with MDA-MB-468. Put plainly: Antiproliferative activity against human MDA-MB-468 cells assessed as cell growth inhibition incubated for 96 hrs by Cell-Titer Glo assay. To be noted: MDA-MB-468, 96 h.
Series [2] has as its target Protein cereblon/Peptidyl-prolyl cis-trans isomerase NIMA-interacting 1 (Homo sapiens, UniProt Q13526+Q96SW2). Put plainly: PROTAC activity at CRBN/PIN1 in human MDA-MB-468 cells assessed as induction of PIN1 degradation incubated for 24 hrs by high content analysis.
The next series deals with Huh-7. Put plainly: Antiproliferative activity against human Huh-7 cells assessed as cell growth inhibition incubated for 96 hrs by Cell-Titer Glo assay. The note with it: Huh-7, 96 h.
In a further series the test system is PANC-1. Put plainly: Antiproliferative activity against human PANC-1 cells assessed as cell growth inhibition incubated for 96 hrs by Cell-Titer Glo assay. To be noted: PANC-1, 96 h.
Series [3] deals with T1, Peptidyl-prolyl cis-trans isomerase NIMA-interacting 1. Put plainly: Inhibition of His-tagged PIN1 (unknown origin) TAMRA labelled Bth-D-pThr-Pip-L-2Nal as substrate incubated for 30 mins by fluorescence polarization analysis. Background: Fluorescence polarisation rises when a labelled molecule tumbles more slowly, as on binding a larger partner.
A short description of series [4]: Permeability across apical to basolateral side in MDCK cells incubated for 120 mins by LC-MS/MS analysis. To be noted: dog.
Series [5] concerns the target T1, Peptidyl-prolyl cis-trans isomerase NIMA-interacting 1. Put plainly: Binding affinity to GST-tagged PIN1 (unknown origin) assessed as dissociation constant by SPR analysis.
Series [6] is described as follows: Efflux ratio of permeability across basolateral to apical side over apical to basolateral side in MDCK cells incubated for 120 mins by LC-MS/MS analysis. To be noted: dog.
Series [7] deals with T1, Peptidyl-prolyl cis-trans isomerase NIMA-interacting 1. Put plainly: Inhibition of recombinant human PIN1 prolyl isomerase activity measured after 180 mins.

Where only a bound is given, the exact number is not on record here.

Broadly, the Ki is the equilibrium dissociation constant of an inhibitor or competing ligand from its target. A high value points to a looser hold on the target. Broadly, the GI50 is the concentration that inhibits growth by half. In general, DC50 refers to the concentration giving 50% degradation. For orientation: IC50 means the concentration at which inhibition is half-maximal. For orientation: Papp A→B means how fast a substance crosses the layer from the apical side. Higher therefore signals fast passage. A word on the Kd: it is the constant that tells how readily two partners part at equilibrium. One may read the efflux ratio as a quotient of directional permeabilities that is used to spot active efflux.

T1 sequence (Q13526 whole entry): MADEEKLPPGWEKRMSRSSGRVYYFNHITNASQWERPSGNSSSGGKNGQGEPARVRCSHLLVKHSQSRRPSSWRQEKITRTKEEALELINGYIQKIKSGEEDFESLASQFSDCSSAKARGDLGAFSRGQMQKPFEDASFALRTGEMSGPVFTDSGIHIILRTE
Sequence of Protein cereblon/Peptidyl-prolyl cis-trans isomerase NIMA-interacting 1 (Q13526 whole entry): as above
Sequence of Protein cereblon/Peptidyl-prolyl cis-trans isomerase NIMA-interacting 1 (Q96SW2 whole entry): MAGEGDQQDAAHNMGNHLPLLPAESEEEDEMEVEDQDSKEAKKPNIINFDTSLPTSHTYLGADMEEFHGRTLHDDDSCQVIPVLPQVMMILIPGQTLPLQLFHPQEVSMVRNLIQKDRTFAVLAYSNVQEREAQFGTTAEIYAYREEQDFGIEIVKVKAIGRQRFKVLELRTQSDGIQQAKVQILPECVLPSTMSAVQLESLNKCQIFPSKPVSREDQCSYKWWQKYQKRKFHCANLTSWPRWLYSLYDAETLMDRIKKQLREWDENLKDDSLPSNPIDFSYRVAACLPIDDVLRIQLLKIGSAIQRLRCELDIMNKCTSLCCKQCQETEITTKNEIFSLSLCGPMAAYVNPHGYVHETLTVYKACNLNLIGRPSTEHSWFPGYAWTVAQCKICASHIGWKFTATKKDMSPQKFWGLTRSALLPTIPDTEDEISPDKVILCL

As to `CC(C)(C)CN(C(=O)CCl)C1CCS(=O)(=O)C1` (stereo unspecified), affinity in [1] was put at a Ki of 0.017 µM.

For the molecule `Cc1cccnc1C1(C(=O)NC(Cc2cn(-c3ccc(-c4ccc(C#N)cc4)cc3)nn2)C(=O)NCCCCOc2cccc3c2C(=O)N(C2CCC(=O)NC2=O)C3=O)CC1` (stereo unspecified), the GI50 in the series with MDA-MB-468 is 16.5 µM; in the series on Huh-7 it was 20.7 µM; with PANC-1, over 30 µM. In series [2], the DC50 is 0.071 µM.

In [3], `CNC(=O)C(Cc1cn(-c2ccc(-c3ccc(C#N)cc3)cc2)nn1)NC(=O)Cc1ccccc1` (stereo unspecified) had an IC50 of over 100 µM.

On to `Cc1cccnc1C1(C(=O)NC(Cc2cn(-c3ccc(-c4ccc(C#N)cc4)cc3)nn2)C(=O)NCCCOc2cccc3c2C(=O)N(C2CCC(=O)NC2=O)C3=O)CC1` (stereo unspecified), for which the GI50 was 2.7 µM in the series on MDA-MB-468, 5.8 µM in the series on Huh-7 and over 30 µM with PANC-1. Besides, the DC50 in series [2] was determined as 0.02 µM.

For `Cc1ccccc1C1(C(=O)NC(Cc2cn(-c3ccc(-c4ccc(C#N)cc4)cc3)nn2)C(=O)NC2CCN(C)CC2)CC1` (stereo unspecified), the figures for the GI50 in the series with MDA-MB-468, in the series with Huh-7 and in the series with PANC-1 were 36.8 µM, 9.9 µM and 9.3 µM, respectively. In series [4], the Papp A→B at 2 h is 0.01 ×10⁻⁶ cm/s.

With `CNC(=O)C(Cc1cn(-c2ccn(C)n2)nn1)NC(=O)C1(c2ccccc2)CC1` (stereo unspecified), in [3], the IC50 was over 10 µM. Also, the Kd in series [5] worked out at 39.3 µM.

`CNC(=O)C(Cc1cn(-c2ccc(-c3ccc(C#N)cc3)cc2)nn1)NC(=O)C(C)(C)c1ccccc1` (stereo unspecified) gave an IC50 in [3] of 2.09 µM. In addition, the Kd in [5] is 2.93 µM.

Regarding `Cc1cccnc1C1(C(=O)NC(Cc2cn(-c3ccc(-c4ccc(C#N)cc4)cc3)nn2)C(=O)NC2CCN(CCCCCOc3cccc4c3C(=O)N(C3CCC(=O)NC3=O)C4=O)CC2)CC1` (stereo unspecified), the GI50 in the series on MDA-MB-468, in the series with Huh-7 and in the series with PANC-1 was over 30 µM in each case. For the same molecule, in series [2], the DC50 was 0.019 µM.

Molecule `CNC(=O)/C(=C\c1cn(-c2ccc(-c3ccc(C#N)cc3)cc2)nn1)NC(=O)C1(c2ccccc2C)CC1` yielded an IC50 in series [3] of 0.25 µM. The GI50 in the series with MDA-MB-468 is 13.8 µM; in the series on Huh-7, 15.4 µM; in the series with PANC-1, 23.1 µM. Besides, in series [6], the efflux ratio at 2 h amounted to 4.77. The molecule further gave a Papp A→B at 2 h in [4] of 0.78 ×10⁻⁶ cm/s. In addition, the Kd in series [5] amounted to 0.12 µM.

On to `CNC(=O)C(Cc1cn(-c2ccc(-c3ccc(C#N)cc3)cc2)nn1)NC(=O)C1(c2ccccc2)CCC1` (stereo unspecified), for which, in series [3], the IC50 is over 100 µM.

Take `CNC(=O)C(Cc1cn(-c2ccc(-c3ccc(C#N)cc3)cc2)nn1)NC(=O)C1(c2ccccc2)CCCCC1` (stereo unspecified): in series [3], the IC50 is over 100 µM.

In series [3], `CNC(=O)C(Cc1cn(-c2ccc(C3CCN(C)CC3)cc2)nn1)NC(=O)C1(c2ccccc2)CC1` (stereo unspecified) registered an IC50 of over 100 µM.

Consider `CNC(=O)C(Cc1cn(-c2ccc(-c3ccc(C#N)cc3)cc2)nn1)NC(=O)C1(c2ccccc2)CCCC1` (stereo unspecified), for which the IC50 in series [3] is over 100 µM.

In the case of `CNC(=O)C(Cc1cn(Cc2cc3ccccc3s2)nn1)NC(=O)C1(c2ccccc2)CC1` (stereo unspecified), the half-inhibitory concentration (IC50) in series [3] was over 100 µM. Also, in series [5], the Kd was over 50 µM.

As for `CC(C)(C)NC(=O)C(Cc1cn(-c2ccc(-c3ccc(C#N)cc3)cc2)nn1)NC(=O)C1(c2ccccc2)CC1` (stereo unspecified), in series [3], the IC50 is over 100 µM.

In [3], `CNC(=O)C(Cc1cn(-c2ccc(-c3ccc(C#N)cc3)cc2)nn1)NC(=O)C1(c2ncccc2C)CC1` (stereo unspecified) gave an IC50 of 0.36 µM. Further, the GI50 is 4.6 µM in the series on MDA-MB-468, over 30 µM with Huh-7 and over 30 µM in the series on PANC-1. Besides, the Kd in [5] was determined as 0.37 µM.

In the case of `Cc1cccnc1C1(C(=O)NC(Cc2cn(-c3ccc(-c4ccc(C#N)cc4)cc3)nn2)C(=O)NC2CCN(CCCOc3cccc4c3C(=O)N(C3CCC(=O)NC3=O)C4=O)CC2)CC1` (stereo unspecified), the GI50 with MDA-MB-468, with Huh-7 and in the series with PANC-1 was over 30 µM in each case. In addition, in [2], the DC50 amounted to 0.041 µM.

Regarding `CC(C)(C)c1ccc(S(=O)(=O)/N=C2\C=C(SCC(=O)O)C(=O)c3ccccc32)cc1`, in series [7], the IC50 worked out at 0.64 µM.

The values above are taken from ChEMBL document CHEMBL5584361, “Re-Evaluating PIN1 as a Therapeutic Target in Oncology Using Neutral Inhibitors and PROTACs” (J Med Chem, 2024).
